From patent US20220313698A1, “MODULATORS OF CYSTIC FIBROSIS TRANSMEMBRANE CONDUCTANCE REGULATOR” (Vertex Pharmaceuticals Incorporated, priority 2019, published 2022) come the findings set out here.

This assay concerns the target CFTR-mediated chloride transport (Homo sapiens, UniProt P13569). The experiment in a line: Corrector Assay A - membrane potential dye assay (enteroid cells). The conditions noted are these: for EC50: read-out: Corrector Assay A EC50, human intestinal enteroid cells, 18-24 h incubation, acute 10 μM forskolin + 300 nM ivacaftor.
[1] abbreviates: % of chloride transport of triple combination control (1 μM (14S)-dispiro macrocycle + 3 μM tezacaftor + 300 nM ivacaftor).

As for `Cc1cccc2cc3c(nc12)N1C[C@@H](CCC(c2cc(C(C)(C)C)ccn2)Nc2cccc(n2)S(=O)(=O)NC3=O)CC1(C)C` (single isomer, unassigned) [Compound 4], the EC50 was < 1 µM. Also, under setting [1], the “Corrector Assay A % activity” value was “++ (++ is 30-60%)”. For the compound `CC(C)(C)c1ccc2c(n1)N1C[C@@H](CC[C@@H](c3cccc(C4CNC4)n3)Nc3cccc(n3)S(=O)(=O)NC2=O)CC1(C)C` [Compound 151], the EC50 was < 1 µM. For the same compound, the “Corrector Assay A % activity” value under setting [1] was “++ (++ is 30-60%)”.

For the compound `CC(C)C1CC[C@@H]2CN(c3nc(C(C)(C)C)ccc3C(=O)NS(=O)(=O)c3cccc(n3)N1)C(C)(C)C2` (single isomer, unassigned) [Compound 286], the EC50 is < 1 µM. Further, the “Corrector Assay A % activity” value under setting [1] is listed as “+++ (+++ is >60%)”. The matching figures for `Cc1ccc2nc3c(cc2c1)C(=O)NS(=O)(=O)c1cccc(n1)N[C@H](c1cc(C(C)(C)C)ccn1)CC[C@@H]1CN3C(C)(C)C1` (single isomer, unassigned) [Compound 6]: < 1 µM and “++ (++ is 30-60%)”. As to `CC(C)(C)c1ccnc(C2CC[C@@H]3CN(c4nc(C(C)(C)C)ncc4C(=O)NS(=O)(=O)c4cccc(n4)N2)C(C)(C)C3)c1` (single isomer, unassigned) [Compound 2], the EC50 is < 1 µM. The “Corrector Assay A % activity” value under setting [1] is “+++ (+++ is >60%)”.

`CC(C)Cc1ccc(C2CC[C@@H]3CN(c4nc(C(C)(C)C)ccc4C(=O)NS(=O)(=O)c4cccc(n4)N2)C(C)(C)C3)nc1` (stereo partly shown) [Compound 180]: the concentration giving a half-maximal response (EC50) was < 1 µM. Under setting [1], the “Corrector Assay A % activity” value is recorded as “+++ (+++ is >60%)”. Consider `C[C@@H](O)C[C@@H]1CC[C@@H]2CN(c3nc(C(C)(C)C)ccc3C(=O)NS(=O)(=O)c3cccc(n3)N1)C(C)(C)C2` (single isomer, unassigned) [Compound 27], for which the EC50 was < 1 µM. Under setting [1], the “Corrector Assay A % activity” value is reported as “++ (++ is 30-60%)”. Take `CC(C)n1cc(-c2ccc3c(n2)N2C[C@@H](CC[C@@H](c4ccccn4)Nc4cccc(n4)S(=O)(=O)NC3=O)CC2(C)C)cn1` [Compound 345]: the EC50 was < 1 µM. Further, the “Corrector Assay A % activity” value under setting [1] was “++ (++ is 30-60%)”. Taken in the same sequence, the figures for `CC1(C)CC=C(c2ccc3c(n2)N2C[C@@H](CC[C@H](c4ccccn4)Nc4cccc(n4)S(=O)(=O)NC3=O)CC2(C)C)CC1` [Compound 327] were < 1 µM and “+++ (+++ is >60%)”. The matching figures for `CC(C)(C)c1ccc2c(n1)N1C[C@@H](CCC(c3cc(Br)ccn3)Nc3cccc(n3)S(=O)(=O)NC2=O)CC1(C)C` (single isomer, unassigned) [Compound 47]: < 1 µM and “++ (++ is 30-60%)”. For `CC(C)(C)c1ccc2c(n1)N1C[C@@H](CC[C@@H](c3cccc(N4CCOCC4)n3)Nc3cccc(n3)S(=O)(=O)NC2=O)CC1(C)C` [Compound 190], the EC50 is < 1 µM. The “Corrector Assay A % activity” value under setting [1] is “++ (++ is 30-60%)”.

In the case of `CC(C)(C)c1ccc2c(n1)N1C[C@@H](CCC(c3cc(C#N)ccn3)Nc3cccc(n3)S(=O)(=O)NC2=O)CC1(C)C` (single isomer, unassigned) [Compound 143], the concentration giving a half-maximal response (EC50) was < 1 µM. The “Corrector Assay A % activity” value under setting [1] is “++ (++ is 30-60%)”. Taken in the same sequence, the figures for `CC(C)(C)c1ccc2c(n1)N1C[C@@H](CCC(C3CCN(c4ncccn4)CC3)Nc3cccc(n3)S(=O)(=O)NC2=O)CC1(C)C` (stereo partly drawn) [Compound 218, (14S)-8-tert-butyl-12,12-dimethyl-17-[1-(pyrimidin-2-yl)piperidin-4-yl]-2λ^6-thia-3,9,11,18,23-pentaazatetracyclo[17.3.1.111,14.05,10]tetracosa-1(23),5(10),6,8,19,21-hexaene-2,2,4-trione] were < 1 µM and “++ (++ is 30-60%)”.

Regarding `CC(C)(C)c1ccc2c(n1)N1C[C@@H](CCC(c3cccnc3)Nc3cccc(n3)S(=O)(=O)NC2=O)CC1(C)C` (single isomer, unassigned) [Compound 283], the EC50 is < 1 µM. Moreover, under setting [1], the “Corrector Assay A % activity” value was “+++ (+++ is >60%)”. On to `CC(C)(C)c1ccc2c(n1)N1C[C@@H](CC[C@@H](C(=O)NC3CC4(CCNCC4)C3)Nc3cccc(n3)S(=O)(=O)NC2=O)CC1(C)C` [Compound 223], for which the “Corrector Assay A % activity” value under setting [1] is on record as “+ (+ is <30%)”. For the compound `CC1(C)C[C@@H]2CC[C@H](c3ccccn3)Nc3cccc(n3)S(=O)(=O)NC(=O)c3ccc(C4=CCCCC4)nc3N1C2` [Compound 329], the EC50 was < 1 µM. The “Corrector Assay A % activity” value under setting [1] was “+++ (+++ is >60%)”. `COC(=O)NCc1ccnc(C2CC[C@@H]3CN(c4nc(C(C)(C)C)ccc4C(=O)NS(=O)(=O)c4cccc(n4)N2)C(C)(C)C3)c1` (single isomer, unassigned) [Compound 107]: the concentration for a half-maximal effect (EC50) is < 1 µM. Moreover, under setting [1], the “Corrector Assay A % activity” value is “++ (++ is 30-60%)”. Consider `CC(C)(C)c1ccc2c(n1)N1C[C@@H](CC[C@@H](c3cc(C(F)(F)F)ccn3)Nc3cccc(n3)S(=O)(=O)NC2=O)CC1(C)C` (single isomer, unassigned) [Compound 92], for which the EC50 is < 1 µM. For the same compound, for the setting “given as a number, not a class symbol, % of triple combination control”, the “Corrector Assay A % activity” value worked out at 52.5%. Turning to `CN(C)C(=O)CCCC1CC[C@@H]2CN(c3nc(C(C)(C)C)ccc3C(=O)NS(=O)(=O)c3cccc(n3)N1)C(C)(C)C2` (stereo partly drawn) [Compound 18, 4-[(14S)-8-tert-Butyl-12,12-dimethyl-2,2,4-trioxo-2λ^6-thia-3,9,11,18,23-pentaazatetracyclo[17.3.1.111,14.05,10]tetracosa-1(23),5(10),6,8,19,21-hexaen-17-yl]-N,N-dimethylbutanamide], the EC50 was < 1 µM. Moreover, under setting [1], the “Corrector Assay A % activity” value is “+++ (+++ is >60%)”.

Take `CC(C)(C)c1ccc2c(n1)N1C[C@@H](CCC(c3ccc(C4=CCOCC4)cn3)Nc3cccc(n3)S(=O)(=O)NC2=O)CC1(C)C` (stereo partly shown) [Compound 168]: the EC50 was < 1 µM. Further, under setting [1], the “Corrector Assay A % activity” value is “+++ (+++ is >60%)”. As for `CC(C)(C)NCc1ccnc([C@@H]2CC[C@@H]3CN(c4nc(C(C)(C)C)ccc4C(=O)NS(=O)(=O)c4cccc(n4)N2)C(C)(C)C3)c1` (single isomer, unassigned) [Compound 62], the EC50 lay within 1 to 3 µM. Under setting [1], the “Corrector Assay A % activity” value is “++ (++ is 30-60%)”. Taken in the same sequence, the figures for `Cn1nccc1-c1ccc(C2CC[C@@H]3CN(c4nc(C(C)(C)C)ccc4C(=O)NS(=O)(=O)c4cccc(n4)N2)C(C)(C)C3)nc1` (stereo partly shown) [Compound 58] were < 1 µM and “+++ (+++ is >60%)”. Regarding `CC(C)(C)c1ccc2c(n1)N1C[C@@H](CCC(c3ccc(CCN)cn3)Nc3cccc(n3)S(=O)(=O)NC2=O)CC1(C)C` (stereo partly shown) [Compound 114], the concentration for a half-maximal effect (EC50) was < 1 µM. Further, the “Corrector Assay A % activity” value under setting [1] is listed as “++ (++ is 30-60%)”. As for `CC(C)(C)c1ccc2c(n1)N1C[C@@H](CC[C@@H](c3cccc(C4CCOCC4)n3)Nc3cccc(n3)S(=O)(=O)NC2=O)CC1(C)C` [Compound 147], the EC50 was > 3 µM. Moreover, the “Corrector Assay A % activity” value under setting [1] is listed as “+ (+ is <30%)”.

For `CC(C)(C)CCOc1cccc(-c2ccc3c(n2)N2C[C@@H](CC[C@H](c4cc(C(C)(C)C)ccn4)Nc4cccc(n4)S(=O)(=O)NC3=O)CC2(C)C)n1` [Compound 303, (14S,17R)-17-(4-tert-butylpyridin-2-yl)-8-[6-(3,3-dimethylbutoxy)pyridin-2-yl]-12,12-dimethyl-2λ^6-thia-3,9,11,18,23-pentaazatetracyclo[17.3.1.111,14.05,10]tetracosa-1(22),5,7,9,19(23),20-hexaene-2,2,4-trione], the EC50 was < 1 µM. Moreover, the “Corrector Assay A % activity” value under setting [1] is given as “+++ (+++ is >60%)”. `CC(C)(C)c1ccc2c(n1)N1C[C@@H](CCC(CC(O)CO)Nc3cccc(n3)S(=O)(=O)NC2=O)CC1(C)C` (single isomer, unassigned) [Compound 32]: the EC50 was < 1 µM. Under setting [1], the “Corrector Assay A % activity” value is on record as “+++ (+++ is >60%)”. Taken in the same sequence, the figures for `CC(C)(C)c1ccc2c(n1)N1C[C@@H](CCC(c3cc(C4CCNCC4)ccn3)Nc3cccc(n3)S(=O)(=O)NC2=O)CC1(C)C` (stereo partly drawn) [Compound 124, (14S)-8-tert-butyl-12,12-dimethyl-17-[4-(piperidin-4-yl)pyridin-2-yl]-2λ^6-thia-3,9,11,18,23-pentaazatetracyclo[17.3.1.111,14.05,10]tetracosa-1(23),5(10),6,8,19,21-hexaene-2,2,4-trione] were < 1 µM and “++ (++ is 30-60%)”. The matching figures for `CC(C)O[C@H]1C[C@@H](Oc2ccc3c(n2)N2C[C@@H](CC[C@H](c4ccccn4)Nc4cccc(n4)S(=O)(=O)NC3=O)CC2(C)C)C1` [Compound 161, (14S,17R)-12,12-dimethyl-17-(pyridin-2-yl)-8-[(1s,3S)-3-(propan-2-yloxy)cyclobutoxy]-2λ^6-thia-3,9,11,18,23-pentaazatetracyclo[17.3.1.111,14.05,10]tetracosa-1(22),5,7,9,19(23),20-hexaene-2,2,4-trione]: < 1 µM and “+++ (+++ is >60%)”. On to `CC(C)(C)c1ccc2c(n1)N1C[C@@H](CCC(c3ccc(C4CNC4)cn3)Nc3cccc(n3)S(=O)(=O)NC2=O)CC1(C)C` (stereo partly shown) [Compound 166], for which the 50% effective concentration (EC50) was < 1 µM. Moreover, the “Corrector Assay A % activity” value under setting [1] is listed as “+++ (+++ is >60%)”.

On to `CC(C)(C)c1ccc2c(n1)N1C[C@@H](CCC(c3cccnc3)Nc3cccc(n3)S(=O)(=O)NC2=O)CC1(C)C` (single isomer, unassigned) [Compound 282], for which the EC50 is < 1 µM. Under setting [1], the “Corrector Assay A % activity” value is reported as “+++ (+++ is >60%)”. Taken in the same sequence, the figures for `CN1c2cccc(n2)S(=O)(=O)NC(=O)c2ccc(C(C)(C)C)nc2N2C[C@@H](CCC1c1ccccc1)CC2(C)C` (single isomer, unassigned) [Compound 261] were < 1 µM and “+ (+ is <30%)”.
